The source of these data is US20260053834A1, “COVALENT MODIFIERS OF AKT1 AND USES THEREOF” (Terremoto Biosciences, Inc., priority 2023, published 2026).

The subject of experiment [1] is LAPC4 prostate cancer cells, which express the AKT1 E17K allele. The experiment is described as follows: Antiproliferative effects in LAPC4 cells (CellTiter Glo, 72 h). Format: cell-based. Particulars: Homo sapiens, LAPC4, 72 h, read-out: LAPC4 proliferation IC50: GeoMean IC50. The essentials: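 IC50 values come from Hill-equation fitting of luminescence (cellular ATP) after 72 h compound exposure. Treated wells held 1,000 cells each, with compound delivered as DMSO dilutions. Culture medium was IMDM plus 12% FBS.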
A general note: Cellular ATP, detected with luciferase, serves as a proxy for viable cell number.

A further experiment addresses T1, AKT1 E17K (Homo sapiens, UniProt P31749, E17K).
T1 construct: expressed in transfected cells; host or cells: HEK293
Description: Live cell target engagement by NanoBRET competitive probe displacement, AKT1 E17K. It counts as binding. To be noted: transfected HEK293 cells, 2 h at 37° C., read-out: AKT1 E17K IC50: GeoMean IC50. For orientation: In BRET a luciferase serves as donor, and the signal depends on an acceptor being close.

The target of a further experiment is T2, AKT1 WT (Homo sapiens, UniProt P31749).
T2 construct: expressed in transfected cells; host or cells: HEK293
T2 sequence (P31749 whole entry): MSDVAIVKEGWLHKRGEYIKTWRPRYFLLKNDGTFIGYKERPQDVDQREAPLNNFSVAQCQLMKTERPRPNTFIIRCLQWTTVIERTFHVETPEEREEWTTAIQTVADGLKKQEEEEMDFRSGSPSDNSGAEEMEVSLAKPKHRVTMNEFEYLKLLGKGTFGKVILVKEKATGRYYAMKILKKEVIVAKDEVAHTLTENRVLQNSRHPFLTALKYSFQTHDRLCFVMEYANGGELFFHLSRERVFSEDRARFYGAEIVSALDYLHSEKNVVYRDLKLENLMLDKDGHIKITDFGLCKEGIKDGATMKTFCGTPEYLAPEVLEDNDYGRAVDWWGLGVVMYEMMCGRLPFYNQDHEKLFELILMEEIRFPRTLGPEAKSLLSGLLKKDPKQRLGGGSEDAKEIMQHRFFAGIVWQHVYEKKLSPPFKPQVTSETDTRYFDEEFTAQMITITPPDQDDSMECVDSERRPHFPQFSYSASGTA
Description: Live cell target engagement by NanoBRET competitive probe displacement, AKT1 WT. Format: binding. Particulars: transfected HEK293 cells, 2 h at 37° C., read-out: AKT1 WT IC50: GeoMean IC50.

In the next experiment the target is T3, AKT2 (Homo sapiens, UniProt P31751).
T3 construct: expressed in transfected cells; host or cells: HEK293
T3 sequence (P31751 whole entry): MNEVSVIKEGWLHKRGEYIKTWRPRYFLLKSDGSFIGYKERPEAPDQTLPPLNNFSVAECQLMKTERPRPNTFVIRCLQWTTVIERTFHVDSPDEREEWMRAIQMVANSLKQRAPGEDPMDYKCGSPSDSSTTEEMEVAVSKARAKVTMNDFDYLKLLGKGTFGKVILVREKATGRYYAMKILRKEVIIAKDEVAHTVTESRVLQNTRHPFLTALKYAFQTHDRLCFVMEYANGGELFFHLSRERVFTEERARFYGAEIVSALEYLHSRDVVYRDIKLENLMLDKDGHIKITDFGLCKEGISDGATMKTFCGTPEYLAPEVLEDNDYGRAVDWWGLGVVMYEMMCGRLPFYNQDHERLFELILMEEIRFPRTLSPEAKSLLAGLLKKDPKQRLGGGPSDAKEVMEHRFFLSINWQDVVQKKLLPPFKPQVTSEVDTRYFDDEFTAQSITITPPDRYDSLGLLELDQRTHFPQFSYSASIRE
Description: Live cell target engagement by NanoBRET competitive probe displacement, AKT2. It counts as binding. Particulars: transfected HEK293 cells, 2 h at 37° C., read-out: AKT2 IC50: GeoMean IC50.

Molecules are shown by their SMILES.

T1 sequence (P31749 whole entry E17K): as the sequence (P31749 whole entry) above, with E17K counted along it

With `COc1cncc(-c2ccc3nc(-c4cccnc4N)n(-c4ccc5c(c4)CC[C@@H]5NC(=O)c4ccc(O)c(C=O)c4)c3n2)n1` [Example 80, N-[(1S)-5-[2-(2-aminopyridin-3-yl)-5-(6-methoxypyrazin-2-yl)imidazo[4,5-b]pyridin-3-yl]-2,3-dihydro-1H-inden-1-yl]-3-formyl-4-hydroxybenzamide], the IC50 in experiment [1] was 100 to 2000 nM; at AKT1 E17K, 10 to 100 nM; on AKT1 WT, 10 to 100 nM; at AKT2, 100 to 2000 nM.
`Nc1ncccc1-c1nc2ccc(-n3cccn3)nc2n1-c1ccc2c(c1)CC[C@@H]2NC(=O)c1cc(F)c(O)c(C=O)c1` [Example 81, N-[(1S)-5-[2-(2-aminopyridin-3-yl)-5-(pyrazol-1-yl)imidazo[4,5-b]pyridin-3-yl]-2,3-dihydro-1H-inden-1-yl]-3-fluoro-5-formyl-4-hydroxybenzamide]: the IC50 in experiment [1] fell in the range of 100 to 2000 nM; on AKT1 E17K, 10 to 100 nM; on AKT1 WT it was 10 to 100 nM; on AKT2, 100 to 2000 nM.
Regarding `Nc1ncccc1-c1nc2ccc(-n3cccn3)nc2n1-c1ccc2c(c1)CC[C@@H]2NC(=O)c1cc(C=O)c(O)c(F)c1F` [Example 82, (S)—N-(5-(2-(2-aminopyridin-3-yl)-5-(1H-pyrazol-1-yl)-3H-imidazo[4,5-b]pyridin-3-yl)-2,3-dihydro-1H-inden-1-yl)-2,3-difluoro-5-formyl-4-hydroxybenzamide], the IC50 (in experiment [1]; at AKT1 E17K; at AKT1 WT; at AKT2) was 10 to 100 nM each time.
In the case of `COc1cnn(-c2ccc3nc(-c4cccnc4N)n(-c4ccc5c(c4)CC[C@@H]5NC(=O)c4ccc(O)c(C=O)c4)c3n2)c1` [Example 83, N-[(1S)-5-[2-(2-aminopyridin-3-yl)-5-(4-methoxypyrazol-1-yl)imidazo[4,5-b]pyridin-3-yl]-2,3-dihydro-1H-inden-1-yl]-3-formyl-4-hydroxybenzamide], the IC50 in experiment [1] is 100 to 2000 nM; on AKT1 E17K, 10 to 100 nM; at AKT1 WT, 10 to 100 nM; at AKT2, 100 to 2000 nM.
Turning to `Nc1ncccc1-c1nc2ccc(-n3cc(C=O)cn3)nc2n1-c1ccc2c(c1)CC[C@@H]2NC(=O)c1ccc(O)c(C=O)c1` [Example 84, N-[(1S)-5-[2-(2-aminopyridin-3-yl)-5-(4-formylpyrazol-1-yl)imidazo[4,5-b]pyridin-3-yl]-2,3-dihydro-1H-inden-1-yl]-3-formyl-4-hydroxybenzamide], the IC50 in experiment [1] is 100 to 2000 nM; on AKT1 E17K it was 10 to 100 nM; at AKT1 WT it was 100 to 2000 nM; on AKT2, 100 to 2000 nM.
Regarding `Nc1ncccc1-c1nc2ccc(-n3cccn3)nc2n1-c1ccc2c(c1)C(=O)C[C@@H]2NC(=O)c1ccc(O)c(C=O)c1` [Example 85, N-[(1S)-5-[2-(2-aminopyridin-3-yl)-5-(pyrazol-1-yl)imidazo[4,5-b]pyridin-3-yl]-3-oxo-1,2-dihydroinden-1-yl]-3-formyl-4-hydroxybenzamide], the IC50 in experiment [1] is at least 2000 nM; on AKT1 E17K, 100 to 2000 nM; at AKT1 WT it was 100 to 2000 nM; on AKT2, 100 to 2000 nM.
Regarding `CS(=O)(=O)Nc1ccc(C(=O)N[C@H]2CCc3cc(-n4c(-c5cccnc5N)nc5ccc(-n6cccn6)nc54)ccc32)cc1C=O` [Example 86, N-[(1S)-5-[2-(2-aminopyridin-3-yl)-5-(pyrazol-1-yl)imidazo[4,5-b]pyridin-3-yl]-2,3-dihydro-1H-inden-1-yl]-3-formyl-4-methanesulfonamidobenzamide], the IC50 in experiment [1] was in the range of 10 to 100 nM; at AKT1 E17K, 10 to 100 nM; at AKT1 WT, 10 to 100 nM; on AKT2, 100 to 2000 nM.
In the case of `Nc1ncccc1-c1nc2ccc(NC3CC3)nc2n1-c1ccc2c(c1)CC[C@@H]2NC(=O)c1ccc(O)c(C=O)c1` [Example 87, (S)—N-(5-(2-(2-aminopyridin-3-yl)-5-(cyclopropylamino)-3H-imidazo[4,5-b]pyridin-3-yl)-2,3-dihydro-1H-inden-1-yl)-3-formyl-4-hydroxybenzamide], the IC50 in experiment [1] is 100 to 2000 nM; on AKT1 E17K it was 10 to 100 nM; at AKT1 WT it was 100 to 2000 nM; on AKT2, at least 2000 nM.
As for `Nc1ncccc1-c1nc2ccc(-c3cscn3)nc2n1-c1ccc2c(c1)CC[C@@H]2NC(=O)c1ccc(O)c(C=O)c1` [Example 88, N-[(1S)-5-[2-(2-aminopyridin-3-yl)-5-(1,3-thiazol-4-yl)imidazo[4,5-b]pyridin-3-yl]-2,3-dihydro-1H-inden-1-yl]-3-formyl-4-hydroxybenzamide], the IC50 in experiment [1] lay within 10 to 100 nM; at AKT1 E17K, 10 to 100 nM; at AKT1 WT, 10 to 100 nM; at AKT2, 100 to 2000 nM.
For the molecule `Nc1ncccc1-c1nc2ccc(-c3ccccc3)nc2n1-c1ccc2c(c1)CC[C@@H]2NC(=O)c1ccc(O)c(C=O)n1` [Example 89, (S)—N-(5-(2-(2-aminopyridin-3-yl)-5-phenyl-3H-imidazo[4,5-b]pyridin-3-yl)-2,3-dihydro-1H-inden-1-yl)-6-formyl-5-hydroxypicolinamide], the IC50 lay within 100 to 2000 nM in experiment [1], 100 to 2000 nM on AKT1 E17K, 10 to 100 nM on AKT1 WT and 100 to 2000 nM on AKT2.
As for `N#Cc1cnn(-c2ccc3nc(-c4cccnc4N)n(-c4ccc5c(c4)CC[C@@H]5NC(=O)c4ccc(O)c(C=O)c4)c3n2)c1` [Example 90, N-[(1S)-5-[2-(2-aminopyridin-3-yl)-5-(4-cyanopyrazol-1-yl)imidazo[4,5-b]pyridin-3-yl]-2,3-dihydro-1H-inden-1-yl]-3-formyl-4-hydroxybenzamide], the IC50 fell in the range of 100 to 2000 nM in experiment [1], 10 to 100 nM at AKT1 E17K, 100 to 2000 nM at AKT1 WT and 100 to 2000 nM on AKT2.
For `Nc1ncccc1-c1nc2ccc(-n3nccn3)nc2n1-c1ccc2c(c1)CC[C@@H]2NC(=O)c1ccc(O)c(C=O)c1` [Example 91, N-[(1S)-5-[2-(2-aminopyridin-3-yl)-5-(1,2,3-triazol-2-yl)imidazo[4,5-b]pyridin-3-yl]-2,3-dihydro-1H-inden-1-yl]-3-formyl-4-hydroxybenzamide], the IC50 lay within 10 to 100 nM in experiment [1], 10 to 100 nM on AKT1 E17K, 10 to 100 nM at AKT1 WT and 100 to 2000 nM at AKT2.
Take `Nc1ncccc1-c1nc2ccc(-n3ccnn3)nc2n1-c1ccc2c(c1)CC[C@@H]2NC(=O)c1ccc(O)c(C=O)c1` [Example 92, N-[(1S)-5-[2-(2-aminopyridin-3-yl)-5-(1,2,3-triazol-1-yl)imidazo[4,5-b]pyridin-3-yl]-2,3-dihydro-1H-inden-1-yl]-3-formyl-4-hydroxybenzamide]: the IC50 in experiment [1] is 100 to 2000 nM; on AKT1 E17K, 10 to 100 nM; on AKT1 WT, 10 to 100 nM; on AKT2, 100 to 2000 nM.
As to `Nc1ncccc1-c1nc2ccc(-n3cccn3)nc2n1-c1ccc2c(c1)CC[C@@H]2NC(=O)c1cc(Cl)c(O)c(C=O)c1` [Example 93, N-[(1S)-5-[2-(2-aminopyridin-3-yl)-5-(pyrazol-1-yl)imidazo[4,5-b]pyridin-3-yl]-2,3-dihydro-1H-inden-1-yl]-3-chloro-5-formyl-4-hydroxybenzamide], the IC50 fell in the range of 100 to 2000 nM in experiment [1], 10 to 100 nM at AKT1 E17K, 10 to 100 nM at AKT1 WT and 100 to 2000 nM on AKT2.
